According to publication PMC6522510 (Nature Communications, 2019):
Structures can show the parent of a compound that is named as a salt. Where two headings read alike, the source gives them in different places.

Assays:
Parameters in all cases: species or system AML cell lines (8); Primary HTS, single concentration about 10 uM, Cell Titer Glo viability; log10 luminescence, per cent inhibition relative to cycloheximide control
Settings in all cases: 72 h, relative to cycloheximide control, log10 luminescence, inhibitor
[1] = tested on: U937
[2] = tested on: CMS
[3] = tested on: ML-2
[4] = tested on: MOLM-13
[5] = tested on: CHRF288-11
[6] = tested on: M07e
[7] = tested on: CMK
[8] = tested on: MV4-11

Structure (SMILES) | U937 %inh [1] | CMS %inh [2] | ML-2 %inh [3] | MOLM-13 %inh [4] | CHRF288-11 %inh [5] | M07e %inh [6] | CMK %inh [7] | MV4-11 %inh [8] | U937 %inh ([1]; U937 %inh, 10 µM) | CMS %inh ([2]; CMS %inh, 10 µM) | ML-2 %inh ([3]; ML-2 %inh, 10 µM) | MOLM-13 %inh ([4]; MOLM-13 %inh, 10 µM) | CHRF288-11 %inh ([5]; CHRF288-11 %inh, 10 µM) | M07e %inh ([6]; M07e %inh, 10 µM) | CMK %inh ([7]; CMK %inh, 10 µM) | MV4-11 %inh ([8]; MV4-11 %inh, 10 µM)
COC(C)(C)CCCC(C)C/C=C/C(C)=C/C(=O)O (stereo not shown) [SJ000561041-1, METHOPRENE ACID] | 1.555% | -2.29% | -0.2588% | -0.01315% | 30.54% | -0.2291% | 2.394% | 6.95% | – | – | – | – | – | – | – | –
O=Cc1c2[nH]c3ccccc3c2cc2[nH]c3ccccc3c12 [SJ000561043-1, 6-FORMYLINDOLO [3,2-B] CARBAZOLE] | -0.0231% | 2.828% | 1.695% | 1.501% | 8.34% | 3.515% | 0.1175% | 15.88% | – | – | – | – | – | – | – | –
CC(C)(O)[C@H]1O[C@H]2CC[C@@]3(C)[C@@](O)(CC[C@H]4Cc5c([nH]c6ccccc56)[C@@]43C)C2=CC1=O [SJ000561050-1, PAXILLINE] | 7.084% | 1.09% | 3.934% | 2.78% | 3.611% | -0.09318% | 7.96% | 1.599% | – | – | – | – | – | – | – | –
CC(C)[C@@H](O)CC[C@@H](C)[C@H]1CC[C@H]2[C@@H]3CC=C4C[C@@H](O)CC[C@]4(C)[C@H]3CC[C@]12C [SJ000561051-1, 24(S)-HYDROXYCHOLESTEROL] | -0.5103% | -2.331% | 0.6767% | -1.323% | -3.422% | -2.462% | -0.3911% | -0.7822% | – | – | – | – | – | – | – | –
C[C@H](CC[C@@H]1OC1(C)C)[C@H]1CC[C@H]2[C@@H]3CC=C4C[C@@H](O)CC[C@]4(C)[C@H]3CC[C@]12C [SJ000561052-1, 24(S),25-EPOXYCHOLESTEROL] | -2.032% | 1.576% | -2.235% | -3.183% | 7.379% | 0.1627% | 11.77% | -1.379% | – | – | – | – | – | – | – | –
CC(C)=CCC[C@]1(C)[C@@H](CC=C(C)C)C[C@@]2(CC=C(C)C)C(=O)[C@]1(C(=O)C(C)C)C(=O)C(CC=C(C)C)=C2O [SJ000561062-1, HYPERFORIN] | 1.156% | -0.1771% | 4.019% | 0.05204% | 6.256% | 1.526% | 3.171% | 2.302% | – | – | – | – | – | – | – | –
C=CC[C@@H]1[C@H](O)CC[C@@]2(C)[C@H]1CC[C@@H]1[C@@H]2CC[C@]2(C)[C@@H]([C@H](C)CCCC(C)C)CC[C@@H]12 [SJ000561065-1, LY 295427] | 1.28% | -1.154% | 0.971% | 1.105% | -1.753% | 2.452% | -3.189% | 0.6492% | – | – | – | – | – | – | – | –
CC(C)=CCC/C(C)=C/CC/C(C)=C/CC/C(C)=C/CO [SJ000561066-1, GERANYLGERANIOL] | 2.958% | 3.121% | 1.709% | -0.5636% | 0.138% | 0.9105% | -0.4924% | 1.567% | – | – | – | – | – | – | – | –
CC1=C(/C=C/C(C)=C/C=C/C(C)=C/C(=O)O)C(C)(C)CCC1O (stereo not shown) [SJ000561070-1, 4-HYDROXYRETINOIC ACID] | 18.11% | 38.35% | 5.11% | 7.362% | -3.112% | 7.941% | 1.361% | 34.76% | – | – | – | – | – | – | – | –
CCC1(CC)C(=O)NC(=O)N(C)C1=O [SJ000562691-1, METHARBITAL] | -1.698% | -4.139% | -0.4535% | -1.73% | 3.211% | -1.141% | -5.926% | 0.7749% | – | – | – | – | – | – | – | –
N=C1NC(=O)N2CC12 (stereo not shown) [SJ000564440-1, IMEXON] | 11.23% | 13.09% | 2.993% | 4.482% | 28.3% | 3.11% | -0.6297% | 2.121% | – | – | – | – | – | – | – | –
CC(C)C(=O)OCC(=O)[C@@]12O[C@H](C3CCCCC3)O[C@@H]1C[C@H]1[C@@H]3CCC4=CC(=O)C=C[C@]4(C)[C@H]3[C@@H](O)C[C@@]12C [SJ000565158-1, CICLESONIDE] | – | – | – | – | – | – | – | – | -2.58% | -0.07433% | -1.054% | 4.252% | 0.4753% | -1.566% | 2.034% | -5.442%
CC(C)C(=O)OCC(=O)[C@@]12O[C@H](C3CCCCC3)O[C@@H]1C[C@H]1[C@@H]3CCC4=CC(=O)C=C[C@]4(C)[C@H]3[C@@H](O)C[C@@]12C [SJ000565158-2, CICLESONIDE] | – | – | – | – | – | – | – | – | 6.134% | 2.27% | -2.112% | -0.3458% | 3.888% | 1.744% | 0.8609% | -3.886%
CC(C)Nc1cccnc1N1CCN(C(=O)c2cc3cc(NS(C)(=O)=O)ccc3[nH]2)CC1 [SJ000565159-1, DELAVIRDINE MESYLATE] | 0.4896% | -2.71% | -1.959% | 5.504% | -4.194% | -1.136% | -2.785% | 1.25% | – | – | – | – | – | – | – | –
O=C(O[C@@H]1C[C@@H]2C[C@H]3C[C@H](C1)N2CC3=O)c1c[nH]c2ccccc12 [SJ000565162-1, DOLASETRON MESYLATE] | -1.048% | -2.789% | 0.9019% | 27.78% | -2.852% | 0.4101% | 0.6983% | -0.3278% | – | – | – | – | – | – | – | –
Cc1ccccc1N1CCN(CCc2nnc3n2CCCC3)CC1 [SJ000565164-1, DAPIPRAZOLE HYDROCHLORIDE] | – | – | – | – | – | – | – | – | -2.961% | -1.478% | 2.518% | 25.76% | 8.203% | -1.247% | -9.616% | -2.751%
Cc1ccccc1N1CCN(CCc2nnc3n2CCCC3)CC1 [SJ000565164-2, DAPIPRAZOLE HYDROCHLORIDE] | – | – | – | – | – | – | – | – | -1.057% | -0.5071% | 1.742% | 3.696% | 1.908% | 0.4169% | -2.237% | 0.3008%
CCCCC[C@](C)(O)/C=C/[C@@H]1[C@@H](C/C=C\CCCC(=O)O)[C@@H](O)C[C@H]1O [SJ000565165-1, CARBOPROST TROMETHAMINE] | -1.422% | 2.5% | 2.687% | 2.726% | 21.89% | -0.103% | -7.865% | 1.156% | – | – | – | – | – | – | – | –
CCN(CC)CCOC(=O)c1ccc(N)cc1Cl [SJ000565166-1, CHLOROPROCAINE HYDROCHLORIDE] | -1.434% | -2.449% | 1.664% | 5.209% | 2.414% | -0.3142% | -4.183% | 1.062% | – | – | – | – | – | – | – | –
CCCCCCCCCCCCCCCCCCCCCCO [SJ000565168-1, 1-DOCOSANOL (BEHENYL ALCOHOL)] | -0.3827% | -0.803% | -0.3569% | -4.024% | 5.263% | 3.056% | -5.554% | -0.7251% | – | – | – | – | – | – | – | –
